# Patent US8377706B2, “Olfactory receptor-functionalized transistors for highly selective bioelectronic nose and biosensor using the same” (Seoul National University Industry Foundation, priority 2008, dated 2013)
# Tests used:
# [1] = Control: conductance measurement on carbon nanotube transistors with lipid membranes in which hOR2AG1 was not included; details: lipid membranes without olfactory receptors
# Protocol: (§1) To measure the effects of odorants on the biosensor using human olfactory receptor functionalized transistors, drops of 9 μl phosphate buffered saline (PBS) were placed onto the human olfactory receptor functionalized transistors manufactured in […]. Subsequently, the source-drain current was monitored after the introduction of a solution containing specific odorants. A bias voltage of 100 mV was maintained at all time during the electrical measurement (See FIG. 8).
# (§2) The results are shown in FIGS. 12 and 13, respectively. As shown respectively in FIGS. 12 and 13, each of the conductance modulations was observed on the biosensors using modified carbon nanotube transistors with lipid membranes in which hOR2AG1 was not included and bare carbon nanotube transistors, after the introduction of amyl butyrate at 100 mM.
# [2] = Control: conductance measurement on bare carbon nanotube transistors; details: bare CNT
# Protocol: as §1, §2
# [3] = molecular target: T1, human olfactory receptor 2AG1 (hOR2AG1) protein (Homo sapiens, UniProt Q9H205); test: Conductance (source-drain current) measurement of biosensor using hOR2AG1-functionalized swCNT transistors after introduction of odorants; format: biochemical; details: for Detection Limit: lipid membranes with hOR2AG1 on swCNT-FET, odorant solution in PBS, bias 100 mV
# T1 construct: made in house; host or cells: Escherichia coli
# T1 sequence (Q9H205 1-316): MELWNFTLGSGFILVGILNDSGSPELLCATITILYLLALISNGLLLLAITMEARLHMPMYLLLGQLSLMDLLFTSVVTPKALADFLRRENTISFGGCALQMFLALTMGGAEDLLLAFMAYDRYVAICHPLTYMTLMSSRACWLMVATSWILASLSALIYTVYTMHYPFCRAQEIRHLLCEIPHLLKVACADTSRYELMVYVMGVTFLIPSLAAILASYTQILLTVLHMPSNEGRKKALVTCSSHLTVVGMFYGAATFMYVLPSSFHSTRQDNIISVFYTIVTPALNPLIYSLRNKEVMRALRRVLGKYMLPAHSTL
# Protocol: 1 μl of the hOR2AG1-containing fraction collected in Example 1 was evenly spread to cover the swCNTs and electrodes, and vacuum-dried for 4 hours to fix the hOR2AG1, thereby manufacturing human olfactory receptor-functionalized carbon nanotube transistors.
# as §1
# A 1 M stock solution of the odorants was prepared, and additional dilutions (from 10^−1 M to 10^−13 M) were obtained by serial 1:10 dilutions in PBS.
# Butyl butyrate, phenyl valerate, and propyl butyrate were introduced at various concentrations on the biosensors using hOR2AG1 functionalized transistors manufactured in Example 2 of the present invention, each of the conductance modulations was measured, and the results were recorded in FIGS. 14 to 16, respectively. The arrows illustrated in FIGS. 14 to 16 show time points of introduction of each odorant.
# hOR2AG1 = molecular target: T2, hOR2AG1 (Homo sapiens, UniProt Q9H205); details: known; cited from earlier work
# T2 sequence (Q9H205 1-316): T1 sequence (Q9H205 1-316)
"Source-drain current after introduction of odorant ([3]; 100 fM, 1 pM, 10 pM and 100 pM (FIG. 10))",Detection Limit [3],Effect on biosensor conductance ([3]; odorant at 1 pM (FIG. 11)),Effect on biosensor conductance ([3]; odorant at 100 μM (FIG. 11)),Structure (SMILES),Detection Limit [1],Detection Limit [2],Activation of hOR2AG1 (hOR2AG1)
sharply decreased,1e-10 mM,sharply decreased,,"CCCCCOC(=O)CCC [Amyl butyrate (AB), amyl butyrate]",100 mM,100 mM,activated
,10 mM,,did not affect the biosensor,"CCCCOC(=O)CCC [Butyl butyrate (BB), butyl butyrate]",,,
,10 mM,,did not affect the biosensor,"CCCCCOC(=O)CCCC [Pentyl valerate (PV), pentyl valerate]",,,

Structure (SMILES),"Source-drain current after introduction of odorant ([3]; 100 fM, 1 pM, 10 pM and 100 pM (FIG. 10))",Detection Limit [3],Effect on biosensor conductance ([3]; odorant at 1 pM (FIG. 11)),Effect on biosensor conductance ([3]; odorant at 100 μM (FIG. 11)),Detection Limit [1],Detection Limit [2],Activation of hOR2AG1 (hOR2AG1)
"CCCOC(=O)CCC [Propyl butyrate (PB), propyl butyrate]",,10 mM,,did not affect the biosensor,,,
